Measurements reported in patent US20070111251A1, “Chemical address tags” (priority 2003, published 2007).

Key:
[1] = Additive decomposition of peak excitation and emission wavelengths (model coefficients of A and B groups); settings: A group 1 as baseline; for αi^em: influence of A group on peak emission wavelength; for αi^ex: influence of A group on peak excitation wavelength
From the text: The chemical structure of the styryl library is illustrated in FIG. 3. […] Initial analysis focused on measurements of peak emission and excitation wavelength obtained for all styryl products showing a single, localized peak (there were 256 such compounds for emission wavelength, and 193 compounds for excitation wavelength). […] The wavelength for the styryl compound formed by joining A group i with B group j is denoted as λij (or more specifically, λij^ex for excitation wavelength and λij^em for emission wavelength). The additive model λij=ai+βj+εij was fit to the data using least squares yielding parameters αi^ex, αi^em, βj^ex, and βj^em that quantify the influence of each A and B group on the spectrum of the styryl product. […] (FIGS. 8A-8B). […] The predictions were made ignoring interactions between the two functional moieties in the styryl compound. The predicted values were obtained without bias, by holding out the data point to be predicted when training the model.
In preferred embodiments, using the cross-validation approach disclosed herein, each compound was held out in sequence, the model was trained using the remaining compounds, then the wavelength value for the held-out compound was predicted based on the resulting fitted model. This process produced correlations between measured and predicted values of ρ^em=0.78 (emission) and ρ^ex=0.69 (excitation).
Based on this analysis, the contribution of the A and B functional groups to the fluorescence of the styryl product is quantified using the fitted coefficients αi^ex, βj^ex, […], and βj^em. Since these coefficients are on a scale without origin, in some embodiments, the invention uses the first A group and B group as a baseline, so […], β1^ex=0, and so on. Table 3 contains the model coefficients of all A and B groups for peak excitation and emission wavelength.
Greater values of αi^ex, αi^em, βj^ex, and βj^em indicate greater peak wavelength. Greater values of αi^mito and […] indicate stronger mitochondrial localization. A groups 40 and 41 were not screened for localization. A groups 2, 29, and 33 only formed fluorescent products with a single B group, so were not included in the spectral analysis.
In some embodiments, the wavelength values for peak excitation and emission were fit to the additive model λij=αi+βj+εij, where εij denotes error that is made as small as possible in the fitting process. Using least squares to minimize the function [formula] over all compounds having experimental data yields coefficient estimates αi for each A group and βj for each B group. One set of coefficient estimates is obtained for the excitation values and another set is obtained for the emission values. To predict the wavelength of a new compound formed from A and B groups i* and j* the sum αi*+βj* is used.
In some embodiments, for both the spectral and localization analysis, cross-validation was used to obtain unbiased estimates of the prediction performance. Each compound was held out in sequence, and the coefficients αi and βj were fit to the remaining compounds. These values were then used to form a prediction for the held out compound, then the predicted and experimental values were compared to obtain a measure of the accuracy of prediction. Since the wavelength values are on a continuous scale, the predicted values were compared to the experimental values using Pearson correlation coefficients. The localization values are dichotomous, so the proportion of matching predictions was used to compare predicted and experimental localization values.

[2] = tested on: mitochondria; assay: QSLR factorial logistic regression of mitochondrial localization (affinity coefficients, cross-validated prediction); set-up: species or system human; settings: for αi^mito: influence of A group on mitochondrial localization, greater = stronger; for estimated A group affinity coefficient ai: mitochondrial affinity, ±5 for groups always or never mitochondrial
From the text: The first column and first row contain the A group and B group labels. The second column and second row contain the estimated A group and B group affinity coefficients (ai and bj respectively). The interior of the table contains the value sij=ai+bj for each compound (where positive values of sij indicate predicted localization to mitochondria, and negative values of sij indicate predicted localization to a non-mitochondrial compartment). The subscript m indicates experimentally determined mitochondrial localization. The subscript o indicates experimentally determined non-mitochondrial localization. The darkened boxes indicate correctly predicted mitochondrial localizations under cross-validation.
Based on this matrix, factorial logistic regression (See, A. Agresti, Categorical Data Analysis, Wiley [2002]) was used to calculate mitochondrial affinity coefficients (ai and bj) for each A and B moiety. (Table 1). Since it is not necessary to observe all possible pairings between A and B building blocks to estimate the affinity coefficients, the QSLR approach can predict localization of unmeasured styryl molecules based on a minimal set of experimentally-determined localizations (see Methods). The methods of the present invention allow assessment of predictivity using the cross-validation technique by holding out one compound and fitting the affinity coefficients using the remaining compounds, predictivity can be assessed by comparing the actual localization of the held-out compound to its predicted localization. Repeating this for every measured compound in the library yields an error rate for the procedure.
Briefly, this technique assigns quantitative scores to each A group (αi^mito) and to each B group (βj^mito), in such a way that αi^mito+βj^mito is positive for compounds with mitochondrial localization, and is negative for compounds lacking mitochondrial localization. […] In additional embodiments, same analysis can be applied to organelles other than mitochondria, provided there are a sufficient number of localizations to specific non-mitochondrial organelles in the combinatorial library of interest for reliable statistical calculations.
In certain embodiments, the predictive performance of the above method was assessed using a cross-validation approach by calculating the proportion of all compounds that are correctly predicted. For cross-validation, each styryl product was set aside in sequence, and the factorial logistic model was fit to the remaining data. Then the resulting A and B scores for the held-out compound were summed. If the sum was positive, the held-out compound was predicted to be mitochondrial, while if the sum was negative, the held-out compound was predicted to be non-mitochondrial. […] The baseline performance of the method scored 104 correct out of 145, or 72%. This number is highly statistically significant compared to random guessing (p-value ˜10^−7). Thus, across the entire library, A and B moieties appear to contribute to localization in an independent, additive fashion.
In some embodiments, subcellular localization data were converted to binary (0/1) values by assigning a value Gij=1 if compound i,j localized to mitochondria (even if it localized to other […] as well), and assigning Gij=0 if compound i,j localized exclusively to any non-mitochondrial cellular structure. Compounds with no localization were omitted from this part of the analysis. The αi and βj coefficients for A or B groups that are always observed to localize to mitochondria, or that never localize to mitochondria, were set to +/−5, respectively. The binary localization data were analyzed using factorial logistic regression. […]

[3] = tested on: HeLa cells; assay: Kinetic imaging of NBD-triazine probe uptake and sequestration, fitted to nested two-compartment transport model; type: cell-based; settings: median over optimal solutions within 5% of the best fit
Protocol: In living cells, image data was simultaneously acquired with an automated, high-content, kinetic screening instrument equipped with an environmental chamber (see, e.g., V. C. Abraham, D. L. Taylor and J. R. Haskins, Trends in Biotechnology 22, 15 (2004); herein incorporated by reference in its entirety), as cells were incubated with the fluorescent molecules and after removal of extracellular probe. Data was analyzed off line, using an image analysis algorithm to measure the statistical pixel intensity distribution associated with fluorescence probe sequestration in the perinuclear region (see, e.g., FIG. 21; see also, e.g., G. J. Ding et al., Journal of Biological Chemistry 273, 28897 (1998); herein incorporated by reference in its entirety). Data was parametrized with a nested, two-compartment, transport model (see, e.g., W. E. Evans, J. J. Schentag and W. J. Jusko., Applied Pharmacokinetics: Principles of Therapeutic Drug Monitoring (Lippincott Williams & Wilkins, Vancouver, W.A., 1992); herein incorporated by reference in its entirety), using a statistical link function to relate the kinetic coefficient of variation (CV) of pixel intensities in the images with the concentration of probe in vesicles and cytoplasm. Optimal kinetic parameters fitting the experimental data for each probe to the system described by the two-compartment model and statistical link function were determined using the simulated annealing technique (see, e.g., M. Pincus., Oper. Res. 18, 1225 (1979); herein incorporated by reference in its entirety). The present invention is not limited to a particular mechanism. Indeed, an understanding of the mechanism is not necessary to practice the present invention.
To assess how well the model accounts for all the different kinetic traces acquired, a “PVE” (proportion of variance explained) by the model was calculated. The PVE is one minus the ratio of the sum of squared differences between observed and fitted values to the sum of squared differences between observed values and their mean. PVE values close to one indicate good fit to the nested two-compartment model. The average PVE across the probes was 0.92, with >50% of the probes yielded PVE values […]. The present invention is not limited to a particular mechanism. Indeed, an understanding of the mechanism is not necessary to practice the present invention.
Cell culture. HeLa cells were grown in RPMI+10% FCS in a 5% CO2 atmosphere at 37° C. and plated in 96-well plates at a density of 3000 cells/well 24 hours prior to the start of the experiment.
Kinetic Imaging. For influx experiments, cells on 96-well plates were switched to imaging media consisting of RPMI containing 1.0 mM Bromophenol Blue—a soluble, cell-impermeant chromophore used to suppress excitation and emission of extracellular (background) dye fluorescence-, 10 μM probe and 0.1 μM Hoescht 33258 to label the cell nuclei. Plates were then transferred to a KineticScan instrument (Cellomics, Inc., Pittsburgh, Pa.), which contains an environmentally controlled CO2/temperature/humidity chamber, and data was acquired with a 20× objective lens. Images acquisition began approximately 10 min after dye addition, using the Hoescht channel to acquire nuclear images and FITC channel to acquire the NBD image. Plate-scanning mode was used for scanning, in which the instrument builds time-stacks of images by scanning the plate multiple times, returning to the same site of the plate at every scan. For efflux experiments, dye-containing media was removed from the wells of the plate. The wells were washed twice with fresh RPMI medium, imaging media was added, and image acquisition restarted 7 min after the dye-containing media was removed. The last time points of the influx experiment served as the first time point of the efflux experiment. Plates were scanned for approximately two hours in the influx experiment and six hours for the efflux experiment, with each well imaged on average every 7 minutes. […]

Row | Compound | αi^em [1] [nm] | αi^ex [1] [nm] | median Pap(cyto) (apparent partition coefficient between extracellular medium and cytosol) [3] | median Pap(ves) (apparent partition coefficient between cytosol and intracellular vesicles, k(ves)in/k(ves)out) [3] | αi^mito [2] | estimated A group affinity coefficient ai [2]
1 | O=CCc1ccccc1 [A group 1] | 0.0 | 0.0 | – | – | −0.2 | −0.2
2 | O=Cc1ccccc1 [A group 2] | – | – | – | – | 5.0 | 5.0
3 | O=Cc1ccccc1Br [A group 3] | 46.3 | 35.7 | – | – | 5.0 | 5.0
4 | O=Cc1cccc(Br)c1 [A group 4] | 23.5 | −34.0 | – | – | −5.0 | −5.0
5 | O=Cc1ccc(Br)cc1 [A group 5] | 26.7 | −32.3 | – | – | 5.0 | 5.0
6 | O=Cc1ccc(Cl)cc1 [A group 6] | −9.5 | 4.9 | – | – | 5.0 | 5.0
7 | O=Cc1ccccn1 [A group 40] | 64.8 | −18.1 | – | – | – | –
8 | O=Cc1ccc2ccc3cccc4ccc1c2c34 [A group 41] | 46.9 | 26.1 | – | – | – | –
9 | Cc1ccc(CNc2nc(NCCCCCCNc3ccc([N+](=O)[O-])c4nonc34)nc(NC3CCCCC3)n2)cc1 [Compound G7] | – | – | 6.63 | 29.18 | – | –
10 | Cc1ccc(CNc2nc(NCCCCCCNc3ccc([N+](=O)[O-])c4nonc34)nc(NCCC(C)C)n2)cc1 [Compound G8] | – | – | 8.29 | 24.73 | – | –
11 | Cc1ccc(CNc2nc(NCCCCCCNc3ccc([N+](=O)[O-])c4nonc34)nc(NCCc3ccccn3)n2)cc1 [Compound G9] | – | – | 267.03 | 0.20 | – | –

Continued, in another order:

Row | αi^em [1] [nm] | αi^ex [1] [nm] | median Pap(cyto) (apparent partition coefficient between extracellular medium and cytosol) [3] | median Pap(ves) (apparent partition coefficient between cytosol and intracellular vesicles, k(ves)in/k(ves)out) [3] | Compound | αi^mito [2] | estimated A group affinity coefficient ai [2]
12 | – | – | 161.46 | 0.42 | CCCCNc1nc(NCCCCCCNc2ccc([N+](=O)[O-])c3nonc23)nc(NCc2cccc(OC)c2OC)n1 [Compound H1] | – | –
13 | – | – | 10.30 | 9.91 | COc1cccc(CNc2nc(NCCCCCCNc3ccc([N+](=O)[O-])c4nonc34)nc(NC(C)C)n2)c1OC [Compound H2] | – | –
14 | – | – | 7.51 | 14.91 | CCCCCCCCNc1nc(NCCCCCCNc2ccc([N+](=O)[O-])c3nonc23)nc(NCc2cccc(OC)c2OC)n1 [Compound H3] | – | –
15 | – | – | 5.12 | 16.80 | COc1cccc(CNc2nc(NCCCCCCNc3ccc([N+](=O)[O-])c4nonc34)nc(NC3CCCCC3C)n2)c1OC (centres unmarked) [Compound H5] | – | –
16 | – | – | 8.77 | 22.55 | COc1cccc(CNc2nc(NCCCCCCNc3ccc([N+](=O)[O-])c4nonc34)nc(NCC3CCCCC3)n2)c1OC [Compound H6] | – | –
17 | – | – | 12.95 | 15.10 | COc1cccc(CNc2nc(NCCCCCCNc3ccc([N+](=O)[O-])c4nonc34)nc(NCCC(C)C)n2)c1OC [Compound H8] | – | –
